One data set concerns the target Cytochrome P450 3A4 (Homo sapiens, UniProt P08684). The data set can be described thus: Inhibition of CYP3A4. Format: ADME.
Data set [1] in a line: Oral bioavailability in Sprague-Dawley rat at 1 mg/kg. Format: ADME, organism-based. The following applies: in vivo.
The test system of another data set is PBL. The data set can be described thus: Cytotoxicity against human PBL cells up to 1 uM. The class given is cell-based.
For data set [2], the system named is Human immunodeficiency virus 1. The data set can be described thus: Antiviral activity against HIV1 BaL in human PBL cells. Format: functional, organism-based. The conditions noted are these: Human immunodeficiency virus 1, BaL.
Another data set has as its system HOS. In words: Cytotoxicity against human HOS cells up to 1 uM. The class given is cell-based.
Data set [3] can be described thus: Clearance in Sprague-Dawley rat at 1 mg/kg. Format: ADME, organism-based. Also on record: dose 1 mg/kg. The following applies: in vivo.
Data set [4] has as its system Human immunodeficiency virus 1. In words: Antiviral activity against HIV1 BaL in human HOS cells. Format: functional, organism-based. The conditions noted are these: Human immunodeficiency virus 1, BaL.
Data set [5] is described as follows: Half life in Sprague-Dawley rat at 1 mg/kg. The class given is ADME, organism-based. The arrangement: dose 1 mg/kg. The conditions noted are these: in vivo.
A short description of data set [6]: Apparent permeability across MDCK cells at pH 7.05. The class given is ADME, cell-based, Canis lupus familiaris. The following applies: dog.

Cytochrome P450 3A4, sequence (P08684 whole entry): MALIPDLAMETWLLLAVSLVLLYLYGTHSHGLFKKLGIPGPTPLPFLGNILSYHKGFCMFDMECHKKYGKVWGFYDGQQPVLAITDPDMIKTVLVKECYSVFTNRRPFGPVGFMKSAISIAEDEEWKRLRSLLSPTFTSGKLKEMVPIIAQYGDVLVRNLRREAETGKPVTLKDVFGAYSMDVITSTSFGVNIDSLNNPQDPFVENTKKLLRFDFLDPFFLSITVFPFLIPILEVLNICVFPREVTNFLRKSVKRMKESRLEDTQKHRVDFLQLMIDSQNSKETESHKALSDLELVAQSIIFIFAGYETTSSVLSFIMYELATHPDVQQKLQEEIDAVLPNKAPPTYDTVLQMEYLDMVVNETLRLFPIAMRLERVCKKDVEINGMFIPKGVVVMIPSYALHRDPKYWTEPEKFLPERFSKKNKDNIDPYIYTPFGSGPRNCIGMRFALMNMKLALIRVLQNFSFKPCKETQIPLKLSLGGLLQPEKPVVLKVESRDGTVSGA

Consider `N#Cc1ccc(CNC(=O)N(c2cccc(F)c2)C2CCN(CCC3(c4cccc(F)c4)CCN(C(=O)c4nsnc4O)CC3)CC2)cc1`, for which the “inhibition (INH)” value against Cytochrome P450 3A4 is on record as “Active”. The compound also gave a bioavailability in data set [1] of 0%. The Activity entry with PBL and with HOS was “Non-toxic” each time. Also, the IC50 worked out at 41 nM in data set [2] and 1.1 nM in [4]. This compound also displayed a clearance in data set [3] of 124 mL/min/kg.
`CC(C)(CO)C(=O)N1CCC(CCN2CCC(N(C(=O)NCc3ccc(C#N)cc3)c3cccc(F)c3)CC2)(c2cccc(F)c2)CC1`: the bioavailability in data set [1] amounted to 63%. The Activity result in the data set with PBL and with HOS was “Non-toxic” in each case. Moreover, the results for the half-inhibitory concentration (IC50) in data set [2] and in data set [4] were 20 nM and 19 nM, respectively. Moreover, the half-life in [5] is 2.6 h. In [3], this compound came in with a clearance of 22 mL/min/kg.
`CC(C)(C)NS(=O)(=O)c1ccc(Cl)c(C(=O)N2CCC(CCN3CCC(N(C(=O)NCc4ccc(C#N)cc4)c4cccc(F)c4)CC3)(c3cccc(F)c3)CC2)c1Cl` had a bioavailability in [1] of 10%. In addition, the Activity result with PBL and in the data set with HOS was “Non-toxic” in each case. Besides, the IC50 came to 0.8 nM in [2] and 3 nM in data set [4]. This compound gave a clearance in data set [3] of 9 mL/min/kg.
For `N#Cc1ccc(CNC(=O)N(c2cccc(F)c2)C2CCN(CCC3(c4cccc(F)c4)CCN(C(=O)C4CCOCC4)CC3)CC2)cc1`, in data set [1], the bioavailability stood at 11%. In addition, the Activity result in the data set on PBL and in the data set on HOS was “Non-toxic” in each case. The IC50 in data set [2] worked out at 22 nM; in data set [4] it was 17 nM. The same compound showed a half-life in data set [5] of 2.6 h. Besides, the clearance in data set [3] amounted to 25 mL/min/kg.
Regarding `N#Cc1ccc(CNC(=O)N(c2cccc(F)c2)C2CCN(CCC3(c4cccc(F)c4)CCN(C(=O)c4c(Cl)ccc(S(N)(=O)=O)c4Cl)CC3)CC2)cc1`, the Activity entry in the data set on PBL and in the data set with HOS was “Non-toxic” each time. Besides, the 50% inhibitory concentration (IC50) in [2] is 2.8 nM; in data set [4], 5.7 nM. Also, the apparent permeability (Papp) in data set [6] was below 0.3 ×10⁻⁶ cm/s. Also, in data set [3], the clearance worked out at 16 mL/min/kg.
Turning to `N#Cc1ccc(CNC(=O)N(c2cccc(F)c2)C2CCN(CCC3(c4cccc(F)c4)CCN(C(=O)c4cc(S(=O)(=O)N5CC[C@H](O)C5)c(F)cc4F)CC3)CC2)cc1`, in data set [1], the bioavailability came out at 0%. Further, the Activity result in the data set on PBL and with HOS was “Non-toxic” each time. For the same compound, the clearance in data set [3] stood at 43 mL/min/kg. The compound also registered an IC50 in data set [4] of 1.3 nM.
For the compound `N#Cc1ccc(CNC(=O)N(c2cccc(F)c2)C2CCN(CCC3(c4cccc(F)c4)CCN(C(=O)c4cc(S(=O)(=O)N5CCCC5)c(F)cc4F)CC3)CC2)cc1`, in data set [1], the bioavailability is 10%. Besides, the Activity entry in the data set on PBL and in the data set with HOS was “Non-toxic” throughout. Moreover, the concentration for half-maximal inhibition (IC50) in data set [2] worked out at 0.6 nM; in [4] it was 0.9 nM. In data set [3], this compound returned a clearance of 29 mL/min/kg.
Turning to `N#Cc1ccc(CNC(=O)N(c2cccc(F)c2)C2CCN(CCC3(c4cccc(F)c4)CCN(C(=O)c4ccnc(Cl)c4)CC3)CC2)cc1`, the “inhibition (INH)” value on Cytochrome P450 3A4 is “Active”. Moreover, the bioavailability in [1] was found to be 64%. In addition, the Activity entry in the data set on PBL and with HOS was “Non-toxic” throughout. Further, the half-inhibitory concentration (IC50) in [2] stood at 13 nM; in [4] it was 19 nM. Besides, the half-life in [5] is 5.8 h. This compound registered a clearance in data set [3] of 14.6 mL/min/kg.
Regarding `N#Cc1ccc(CNC(=O)N(c2cccc(F)c2)C2CCN(CCC3(c4cccc(F)c4)CCN(C(=O)c4cc(S(N)(=O)=O)c(F)cc4F)CC3)CC2)cc1`, the Activity entry with PBL and in the data set with HOS was “Non-toxic” throughout. For the same compound, the half-maximal inhibitory concentration (IC50) in [2] was found to be 5.2 nM; in data set [4], 4 nM. In addition, the Papp in [6] is below 0.3 ×10⁻⁶ cm/s. The same compound displayed a clearance in data set [3] of 31 mL/min/kg.
In [1], `CC(CO)(CO)C(=O)N1CCC(CCN2CCC(N(C(=O)NCc3ccc(C#N)cc3)c3cccc(F)c3)CC2)(c2cccc(F)c2)CC1` came in with a bioavailability of 7%. Moreover, the Activity result with PBL and with HOS was “Non-toxic” each time. Also, the half-life in [5] was 4.4 h. Also, in data set [3], the clearance is 26 mL/min/kg. The IC50 in data set [4] is 22 nM.
Take `N#Cc1ccc(CNC(=O)N(c2cccc(F)c2)C2CCN(CCC3(c4cccc(F)c4)CCN(C(=O)c4c(F)ccc(S(N)(=O)=O)c4F)CC3)CC2)cc1`: the Activity result in the data set on PBL and with HOS was “Non-toxic” in each case. The results for the IC50 in data set [2] and in data set [4] were 2 nM and 6.6 nM, respectively. In [3], this compound gave a clearance of 25 mL/min/kg.
As for `Cn1cc(Cl)c(C(=O)N2CCC(CCN3CCC(N(C(=O)NCc4ccc(C#N)cc4)c4cccc(F)c4)CC3)(c3cccc(F)c3)CC2)n1`, the “inhibition (INH)” value against Cytochrome P450 3A4 was “Active”. The bioavailability in data set [1] amounted to 11%. In addition, the Activity result in the data set with PBL and with HOS was “Non-toxic” each time. In addition, the values for the half-inhibitory concentration (IC50) in [2] and in [4] were 22 nM and 17 nM, respectively. This compound gave a half-life in data set [5] of 2.6 h. In [3], this compound registered a clearance of 25 mL/min/kg.
In turn, `N#Cc1ccc(CNC(=O)N(c2cccc(F)c2)C2CCN(CCC3(c4cccc(F)c4)CCN(C(=O)c4cc(S(=O)(=O)N5CC[C@H](O)C5)c(F)cc4Cl)CC3)CC2)cc1` returned a bioavailability in data set [1] of 8%. In addition, the Activity entry in the data set with PBL and with HOS was “Non-toxic” each time. Moreover, the IC50 came out at 0.5 nM in [2] and 1.5 nM in data set [4]. In addition, the clearance in [3] stood at 24 mL/min/kg.
Regarding `N#Cc1ccc(CNC(=O)N(c2cccc(F)c2)C2CCN(CCC3(c4cccc(F)c4)CCN(C(=O)c4cc(S(N)(=O)=O)c(F)cc4Cl)CC3)CC2)cc1`, the Activity result in the data set with PBL and in the data set on HOS was “Non-toxic” in each case. In addition, the IC50 in data set [2] was determined as 0.9 nM; in data set [4] it was 6.8 nM. Besides, the apparent permeability (Papp) in data set [6] was below 0.3 ×10⁻⁶ cm/s. In data set [3], this compound displayed a clearance of 9.7 mL/min/kg.
Consider `N#Cc1ccc(CNC(=O)N(c2cccc(F)c2)C2CCN(CCC3(c4cccc(F)c4)CCN(C(=O)c4cccnc4F)CC3)CC2)cc1`, for which, on Cytochrome P450 3A4, the “inhibition (INH)” value is given as “Active”. The compound also showed a bioavailability in [1] of 60%. Moreover, the Activity entry in the data set with PBL and in the data set on HOS was “Non-toxic” each time. Besides, the IC50 in [2] was 6.1 nM; in [4], 6.4 nM. Also, the half-life in [5] was 3.4 h. Further, the clearance in data set [3] turned out to be 22.5 mL/min/kg.
Turning to `N#Cc1ccc(CNC(=O)N(c2cccc(F)c2)C2CCN(CCC3(c4cccc(F)c4)CCN(C(=O)c4cn[nH]c4C(F)(F)F)CC3)CC2)cc1`, the “inhibition (INH)” value against Cytochrome P450 3A4 is reported as “Active”. In data set [1], the bioavailability came to 3%. For the same compound, the Activity result in the data set on PBL and with HOS was “Non-toxic” each time. The same compound gave a half-life in data set [5] of 7.2 h. The clearance in data set [3] stood at 13 mL/min/kg. The compound further displayed a 50% inhibitory concentration (IC50) in data set [4] of 8.2 nM.
`CC(C)(C)C(=O)N1CCC(CCN2CCC(N(C(=O)NCc3ccc(C#N)cc3)c3cccc(F)c3)CC2)(c2cccc(F)c2)CC1` came in with a bioavailability in [1] of 11%. For the same compound, the Activity entry with PBL and in the data set on HOS was “Non-toxic” throughout. The IC50 was 5.3 nM in data set [2] and 11 nM in data set [4]. The compound also had a half-life in data set [5] of 2.4 h. The clearance in data set [3] is 10 mL/min/kg.
With `CC(C)(C#N)C(=O)N1CCC(CCN2CCC(N(C(=O)NCc3ccc(C#N)cc3)c3cccc(F)c3)CC2)(c2cccc(F)c2)CC1`, the bioavailability in data set [1] came out at 28%. Moreover, the Activity result with PBL and in the data set on HOS was “Non-toxic” throughout. The IC50 in data set [2] amounted to 49 nM; in data set [4], 6.4 nM. This compound gave a half-life in data set [5] of 4.3 h. Further, the clearance in data set [3] is 12 mL/min/kg.
Turning to `N#Cc1ccc(CNC(=O)N(c2cccc(F)c2)C2CCN(CCC3(c4cccc(F)c4)CCN(C(=O)c4c(Cl)cncc4Cl)CC3)CC2)cc1`, the “inhibition (INH)” value against Cytochrome P450 3A4 was “Active”. The compound also showed a bioavailability in data set [1] of 50%. Further, the Activity entry in the data set with PBL and with HOS was “Non-toxic” throughout. Also, the 50% inhibitory concentration (IC50) in data set [2] is 4.8 nM; in [4] it was 2.7 nM. This compound also showed a half-life in data set [5] of 4.9 h. Further, the clearance in data set [3] was 24 mL/min/kg.
For `N#Cc1ccc(CNC(=O)N(c2cccc(F)c2)C2CCN(CCC3(c4cccc(F)c4)CCN(C(=O)c4cc(S(=O)(=O)N5CCCC5)c(F)cc4Cl)CC3)CC2)cc1`, the bioavailability in data set [1] came out at 9%. Besides, the Activity result with PBL and in the data set on HOS was “Non-toxic” in each case. The half-inhibitory concentration (IC50) in data set [2] was determined as 0.6 nM; in data set [4], 1.5 nM. In [3], this compound had a clearance of 9.5 mL/min/kg.

Source of the values: ChEMBL document CHEMBL1287766, “Discovery of N-benzyl-N'-(4-pipyridinyl)urea CCR5 antagonists as anti-HIV-1 agents (II): modification of the acyl portion” (Bioorg Med Chem Lett, 2010).
